For 16 compounds, TGI and GI50 results are on record in PubChem BioAssay (NCI).

“And” between values parts separate entries of the source, which are not always exact repeats. Identical values can stand only once.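 Grown in 96-well plates, cells were treated for 48 hours with each compound at five concentrations. Insufficient inhibition: endpoint recorded as highest concentration tested. GI50 = concentration required for 50% inhibition of growth. TGI marks complete inhibition of growth.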

Some test systems named below: UACC-257 melanoma; HL-60(TB) leukemia; UO-31 renal; SF-295 CNS; SK-MEL-2 melanoma; SN12C renal; RXF 393 renal; OVCAR-3 ovarian.
Holding throughout (test): NCI tumour cell line growth inhibition, 48 h

For `Clc1ccc(C2N3CCCCC3[C@@H]3c4[nH]c5ccccc5c4CCN23)cc1` (stereo partly specified), the TGI in the test on UACC-257 melanoma is more than 100 µM; in the test with HL-60(TB) leukemia, 55 µM; in the test with UO-31 renal it was more than 100 µM; with SF-295 CNS it was more than 100 µM; with SK-MEL-2 melanoma, more than 100 µM; with SN12C renal it was more than 100 µM. The TGI with RXF 393 renal was 78.7 µM; with OVCAR-3 ovarian, more than 100 µM.
In the case of `CCCCN(CCCC)C(=O)C(=O)C(C#N)c1ccc(C)cc1` (stereo unspecified), the TGI with UACC-257 melanoma, in the test on HL-60(TB) leukemia, in the test on UO-31 renal, in the test with SF-295 CNS, in the test on SK-MEL-2 melanoma and in the test with SN12C renal was more than 100 µM throughout. In addition, the TGI in the test with RXF 393 renal and in the test on OVCAR-3 ovarian was more than 100 µM throughout.
Take `N#CC1(Cc2ccc(N)cc2)c2ccccc2C=CN1C(=O)c1ccccc1` (stereo unspecified): the TGI was more than 100 µM in the test with UACC-257 melanoma; 44 µM in the test on HL-60(TB) leukemia; 84.2 µM in the test on UO-31 renal; more than 100 µM in the test on SF-295 CNS; more than 100 µM with SK-MEL-2 melanoma; more than 100 µM in the test with SN12C renal. The TGI in the test on RXF 393 renal and in the test on OVCAR-3 ovarian was more than 100 µM each time.
On to `O=C(N/N=C/c1ccccc1O)c1cccc([N+](=O)[O-])c1`, for which the TGI in the test on UACC-257 melanoma was more than 60.6 µM; in the test with HL-60(TB) leukemia, more than 39.3 µM; in the test on UO-31 renal, 56.5 µM; in the test with SF-295 CNS, 68.3 µM; with SK-MEL-2 melanoma it was more than 100 µM; in the test with SN12C renal, more than 100 µM. Moreover, the TGI in the test with RXF 393 renal is more than 88.9 µM; with OVCAR-3 ovarian, 6.73 µM.
For `CC(C)CC(=O)[O-].CC(C)CC(=O)[O-].N.N.N.N.[Co+3].[O-][Cl+3]([O-])([O-])[O-]`, the GI50 is more than 100 µM in the test with UACC-257 melanoma; more than 100 µM with HL-60(TB) leukemia; 84.7 µM and > 100 µM in the test with UO-31 renal; more than 100 µM in the test on SF-295 CNS; more than 100 µM in the test on SK-MEL-2 melanoma; more than 100 µM in the test on SN12C renal. Further, in the test on OVCAR-3 ovarian, the GI50 is more than 100 µM. For the same compound, the TGI in the test with UACC-257 melanoma, in the test on HL-60(TB) leukemia, in the test with UO-31 renal, in the test with SF-295 CNS, in the test on SK-MEL-2 melanoma and with SN12C renal was more than 100 µM throughout. This compound came in with a TGI in the test on OVCAR-3 ovarian of more than 100 µM.
Turning to `Cc1nc2c(nc1Cl)nc(Oc1ccc(Cl)cc1)c1ccccc12`, the TGI with UACC-257 melanoma is more than 100 µM; in the test on UO-31 renal, 73.7 µM; in the test with SF-295 CNS it was more than 100 µM; in the test with SK-MEL-2 melanoma it was more than 100 µM; in the test on SN12C renal, more than 100 µM; in the test on OVCAR-3 ovarian, more than 100 µM.
On to `COc1ccc2[nH]c3c(C)c4c(c(C)c3c2c1)CN(C)CC4`, for which the TGI in the test on UACC-257 melanoma was found to be 32.7 µM; in the test with HL-60(TB) leukemia it was 4.65 µM; with UO-31 renal, 30 µM; with SF-295 CNS, 32.9 µM; in the test with SK-MEL-2 melanoma it was 31.5 µM; in the test with SN12C renal, 30.6 µM. Also, the TGI was determined as 36.2 µM in the test with RXF 393 renal and 30.3 µM in the test with OVCAR-3 ovarian.
On to `COC(=O)C[C@H]1CCC2(OCCO2)[C@]1(C)C(=O)OC`, for which the TGI in the test on UACC-257 melanoma, in the test on HL-60(TB) leukemia, with UO-31 renal, in the test with SF-295 CNS, in the test on SK-MEL-2 melanoma and with SN12C renal was more than 100 µM each time. Besides, the TGI in the test with RXF 393 renal and with OVCAR-3 ovarian was more than 100 µM throughout.
For `CCCCCCCCCCCCCC(=O)OC1CC(=O)OC1CO` (stereo unspecified), the TGI in the test on UACC-257 melanoma was more than 100 µM; in the test with HL-60(TB) leukemia, 63.9 µM; in the test on UO-31 renal, 92.6 µM; in the test on SF-295 CNS it was 45.5 µM; with SK-MEL-2 melanoma, more than 100 µM; in the test on SN12C renal, more than 100 µM. The TGI in the test with RXF 393 renal and in the test with OVCAR-3 ovarian was more than 100 µM in each case.
For `CC12CC[C@@H](C(C)(C)O)C1[C@@H](O)CC1(C)C2CCC2[C@@]3(C)CC[C@H](O)C(C)(C)C3C(O)C[C@]21C` (stereo partly specified), the TGI worked out at 24.9 µM in the test with HL-60(TB) leukemia; 40 µM in the test on UO-31 renal; 37 µM in the test with SF-295 CNS; 36.8 µM in the test on SK-MEL-2 melanoma; 29.9 µM with SN12C renal; 23.5 µM in the test on RXF 393 renal. Further, the TGI with OVCAR-3 ovarian turned out to be 35.3 µM.
On to `CCCCNC1=C(C(=O)OCC)C(=O)CO1`, for which the TGI in the test with UACC-257 melanoma, in the test on HL-60(TB) leukemia, with UO-31 renal, in the test with SF-295 CNS, with SK-MEL-2 melanoma and in the test with SN12C renal was more than 100 µM in each case. The TGI in the test on RXF 393 renal and in the test on OVCAR-3 ovarian was more than 100 µM in each case.
As for `CCCCCCCCCC[C@@H](O)[C@@H]1CC[C@H]([C@H]2CC[C@@H]([C@@H](O)CCCCCCCCCC[C@H]3CC(CC(C)=O)C(=O)O3)O2)O1` (stereo partly specified), the TGI came to 26.7 µM with UACC-257 melanoma; 2.29 µM with HL-60(TB) leukemia; 16.5 µM in the test with UO-31 renal; 30.7 µM in the test on SK-MEL-2 melanoma; 49.1 µM with SN12C renal; 17.8 µM in the test with OVCAR-3 ovarian.
Regarding `N=C1CSC2=NC3=C(CCC/C3=C\c3ccccc3)C(c3ccccc3)N12` (stereo unspecified), the TGI with UACC-257 melanoma is 30 µM; in the test on HL-60(TB) leukemia it was 6.3 µM; with UO-31 renal, 27.4 µM; in the test with SF-295 CNS, 19.4 µM; in the test on SK-MEL-2 melanoma it was 5.56 µM; in the test on SN12C renal, 27.9 µM. The TGI came out at 17.4 µM in the test on RXF 393 renal and 8.24 µM in the test on OVCAR-3 ovarian.
Consider `COc1ccc2ccc3c(c2c1)CN1CCc2cc(OC)c(OC)cc2C1C3` (stereo unspecified), for which the TGI in the test on UACC-257 melanoma, with HL-60(TB) leukemia, with UO-31 renal, in the test on SF-295 CNS, with SK-MEL-2 melanoma and in the test with SN12C renal was more than 100 µM throughout. The TGI in the test with OVCAR-3 ovarian is more than 100 µM.
As for `COC(=O)CC(=O)C[P+](c1ccccc1)(c1ccccc1)c1ccccc1`, the TGI was more than 218 µM in the test with UACC-257 melanoma; 149 µM in the test on HL-60(TB) leukemia; more than 218 µM in the test on SF-295 CNS; more than 218 µM in the test on SK-MEL-2 melanoma; more than 218 µM in the test on SN12C renal; more than 218 µM in the test with RXF 393 renal. Besides, the TGI in the test with OVCAR-3 ovarian was more than 218 µM.
As for `Cc1ccc(C)c(NC(=O)CC/C(=N\NC(=O)C(=O)NN)C(C)C(=O)c2ccc(O)cc2)c1` (stereo unspecified), the TGI in the test with UACC-257 melanoma, in the test on UO-31 renal, with SF-295 CNS, in the test on SK-MEL-2 melanoma, in the test with SN12C renal and in the test with RXF 393 renal was more than 100 µM throughout. The TGI in the test with OVCAR-3 ovarian was more than 100 µM.
